Data set [1] has as its system 293T cells. Put plainly: Western blot analysis of apoptosis and autophagy. It is filed as cell-based, human. The settings on record: 8 hours, bufalin 1 nM to 10 μM, staurosporine 4 μM; for induction of LC3B-II (marker of autophagy): BFA 100 nM. The protocol:
(§1) The cells were also exposed to 0.1% Triton X-100 for 1 hr before the viability assay as a control (FIG. 16E). Data represent mean values±s.d. (n=3). […] Cells were harvested and washed, then stained with Allophycocyanin (APC) conjugated Annexin V and 7-AAD for 15 minutes and subjected to flow cytometry analysis. The number in each graph is the percentile of Annexin V or 7-AAD positive populations. […] Total protein lysates were prepared and separated on SDS-PAGE for Western blot analysis of PARP1, cleaved PARP1, cleaved Caspase3, LC3B, ATP1a1, and beta-actin expression.
Apoptosis and autophagy were also analyzed by Western blots. […] Total protein lysates were prepared and separated on SDS-PAGE for Western blot analysis of PARP1, cleaved PARP1, cleaved Caspase3, LC3B, ATP1a1, and beta-actin expression.
For orientation: A western blot detects proteins with antibodies after separation by electrophoresis.

For the next data set, the system named is IFNβ promoter. The data set can be described thus: cells. The note with it: for effect of ion-channel ligands on IFNβ reporter: increasing concentrations; for IC50: Homo sapiens, HEK-293T, read-out: IC50 for inhibition of virus induced IFNβ expression. Format: cell-based, human.
In a further data set the test system is endogenous IFNβ gene. The data set can be described thus: RT-PCR of virus induced endogenous IFNβ gene in 293T cells treated with ion-channel modulators. It is filed as cell-based, human. The settings on record: 10 uM, 6 hrs. As for the experimental part:
293T cells were treated with 10 uM of nimodipine, diazoxide or phenamil 30 min before Sendai virus infection, 6 hrs later total RNA were extracted and the expression of various genes were analyzed by RT-PCR.
Since the major function of the pump is to maintain the cellular ion homeostasis, the inventors reasoned that it might be possible to inhibit or stimulate IFNβ induction by varying the intracellular ion concentration. The inventors thus performed luciferase reporter assays with an ion-channel ligand library, which contains various modulators for sodium, potassium, calcium and chloride channels. The experiments were conducted similarly to the initial screening assays: 293T cells were transfected with reporter plasmid, then chemical ligands were added before starting virus infection, and luciferase activity measured after another 24 hrs.

Another data set deals with TNF signaling. The note with it: Yang et al.; blocks TRADD recruitment, inhibits IKBα degradation; cited from earlier work.
Data set [2] relates to 293T cells. The data set can be described thus: Flow cytometry analysis of apoptosis (Annexin V / 7-AAD). It is filed as cell-based, human. The note with it: bufalin 1 μM 8 hours; staurosporine 4 μM 4 hours. The protocol: as §1
Treated cells and untreated control cells were harvested and washed with PBS, and stained with APC conjugated Annexin V and 7-AAD (both from BD Biosciences) in Annexin V binding buffer (10 mM HEPES, pH 7.4, 140 mM NaCl, 2.5 mM CaCl2) for 15 minutes at room temperature, and then subjected to flow cytometry analysis on a FACSCalibur (BD Biosciences).
Cells were harvested and washed, then stained with Allophycocyanin (APC) conjugated Annexin V and 7-AAD for 15 minutes and subjected to flow cytometry analysis. […] 11 for sturosporine.

Each structure is given as a SMILES string. Like-named read-outs stand apart in the source and are kept apart here. Marks after values point to notes of the source that are not given here.

Experimental for IFNβ promoter: 293T cells were transfected with the IFNβ promoter driving a firefly luciferase reporter together a reference renilla luciferase reporter plasmid. […] Firefly luciferase activities were measured after another 24 hrs and normalized to that of renilla activities.
293T cells were transfected with an IFNβ promoter driving luciferase reporter, 24 hrs later, increasing amounts (10 nM to 10 uM) of Ouabain (FIG. 8A) or digoxin (FIG. 8B) were added to cells before the Sendai virus infection. Luciferase activities were measured one day later.
Approximately 40,000 293T cells were seeded in a 96 well plate, and co-transfected with IFNβ-110 firefly luciferase reporter and renilla luciferase plasmids (Fitzgerald, K. A. et al. IKKepsilon and TBK1 are essential components of the IRF3 signaling pathway. Nat Immunol 4, 491-6 (2003)). After 24 hrs, cells were treated with various chemicals at the indicated concentrations, and sendai virus infection was initiated one hour later. After another 24 hrs, cells were lysed and subjected to Dual-Glo luciferase assay analysis (Promega) with an Analyst AD plate reader.
Human 293T cells were transfected with the IFNβ promoter driving the expression of luciferase construct. The cells were treated with a library of chemical compounds, and sendai virus (SeV) infection initiated one hour later. Luciferase activity was measured after another 24 hrs of culture. Signals were normalized to the samples not treated with chemicals.

In the case of `CO/C1=C\C(C)=C\[C@@H](C)[C@@H](O)[C@@H](C)C/C(C)=C/C=C/[C@H](OC)[C@@H]([C@@H](C)[C@@H](O)[C@H](C)[C@@]2(O)C[C@@H](O)[C@H](C)[C@@H](C(C)C)O2)OC1=O` [BFA, bafilomycin A1], the “induction of LC3B-II (marker of autophagy)” value in the data set with 293T cells [1] is “induced”. Consider `O=C(Nc1cccc(Nc2cc(Nc3cccc(C(F)(F)F)c3)ncn2)c1)C1CC1` [EGF receptor inhibitor], for which the “Inhibition % @ 10 μM of virus induced IFNβ expression” value (“Inhibition % @ 10 μM” below) in the data set on IFNβ promoter (chemical library screen) turned out to be 38.5%. Consider `CC#CC(=O)Nc1cc2c(Nc3ccc(F)c(Cl)c3)ncnc2cn1` [EGFR/ErbB-2/ErbB-4 Inhibitor], for which the “Inhibition % @ 10 μM” value with IFNβ promoter (chemical library screen) is on record as 20.6%. Turning to `Cn1c2ccccc2c2c3c(c4c5ccccc5n(CCC#N)c4c21)CNC3=O` [Go 6976], the “Inhibition % of virus induced IFNβ expression” value in the data set with IFNβ promoter (tested at 3 μM, chemical library screen) is 55.9* %. `O=C(Nc1ccc([N+](=O)[O-])cc1O)Nc1ccccc1Br` [SB 225002]: the “Inhibition % @ 10 μM” value in the data set on IFNβ promoter (chemical library screen) is reported as 50.8%. `CC1=NS(=O)(=O)c2cc(Cl)ccc2N1` [diazoxide, Diazoxide]: the “virus induced expression of the endogenous IFNβ gene” value in the data set with endogenous IFNβ gene is reported as “similarly inhibited”. In the data set with IFNβ promoter, the “effect of ion-channel ligands on IFNβ reporter” value was “more inhibition”. Consider `C[C@H]1O[C@@H](O[C@H]2[C@@H](O)C[C@H](O[C@H]3[C@@H](O)C[C@H](O[C@H]4CC[C@@]5(C)[C@H](CC[C@@H]6[C@@H]5CC[C@]5(C)[C@@H](C7=CC(=O)OC7)CC[C@]65O)C4)O[C@@H]3C)O[C@@H]2C)C[C@H](O)[C@@H]1O` [digitoxin], for which the TNF signaling entry in the data set on TNF signaling is reported as “inhibit”. Usually IC50 stands for the point on the concentration scale where inhibition reaches its midpoint. `C[C@H]1O[C@@H](O[C@H]2[C@@H](O)C[C@H](O[C@H]3[C@@H](O)C[C@H](O[C@H]4CC[C@@]5(C)[C@H](CC[C@@H]6[C@@H]5C[C@@H](O)[C@]5(C)[C@@H](C7=CC(=O)OC7)CC[C@]65O)C4)O[C@@H]3C)O[C@@H]2C)C[C@H](O)[C@@H]1O` [digoxin]: the IC50 in the data set on IFNβ promoter was determined as 0.0566 µM. As for `C[C@@H]1O[C@@H](O[C@H]2C[C@@H](O)[C@]3(CO)[C@H]4[C@H](O)C[C@]5(C)[C@@H](C6=CC(=O)OC6)CC[C@]5(O)[C@@H]4CC[C@]3(O)C2)[C@H](O)[C@H](O)[C@H]1O` [ouabain], the IC50 with IFNβ promoter (293T cells, Sendai virus) amounted to 0.0648 µM. Regarding `NC(=Nc1ccccc1)NC(=O)c1nc(Cl)c(N)nc1N` [phenamil], the “virus induced expression of the endogenous IFNβ gene” value in the data set on endogenous IFNβ gene was “less potent”. For the same compound, the “effect of ion-channel ligands on IFNβ reporter” value in the data set with IFNβ promoter is on record as “consistently enhanced”. Regarding `CN[C@@H]1C[C@H]2O[C@@](C)([C@@H]1OC)n1c3ccccc3c3c4c(c5c6ccccc6n2c5c31)C(=O)NC4` [staurosporine], in the data set on 293T cells [1], the “cleavage products of PARP1 and Caspase3 (indication of apoptosis)” value was “induced”; the “induction of LC3B-II (marker of autophagy)” value is listed as “induced”. Moreover, in the data set with 293T cells [2], the “Percentile of Annexin V or 7-AAD positive populations” value came out at 17.11.

Source of the values: patent US20140088056A1, “CARDIAC GLYCOSIDES ARE POTENT INHIBITORS OF INTERFERON-BETA GENE EXPRESSION” (priority 2010, published 2014).
